Patent publication US12673918B2, “Small molecule RPN13 inhibitors with antitumor properties” (The Johns Hopkins University, priority 2019, dated 2026)
Like-named read-outs stand apart in the source and are kept apart here.

Columns and labels:
SKOV3 cells = test: XTT cytotoxicity assay, SKOV3; type: cell-based, human
Text: (§1) The impact of substituents of the aromatic ring on the potency of molecules was also examined. The presence of either an electron withdrawing group (EWG) or an electron donating group (EDG) influences the reactivity of a Michael acceptor towards the target protein but can also impact specificity/selectivity.

HeLa cells = test: XTT cytotoxicity assay, HeLa; type: cell-based, human
Text: as §1

[1] = Table 1, XTT assay, read-out: IC50 SKOV3
[2] = Table 1, XTT assay, read-out: IC50 HeLa
[3] = Table 2, read-out: IC50 SKOV3 (bridge compounds)
[4] = Table 2, read-out: IC50 HeLa (bridge compounds)

Row | SMILES | IC50 (SKOV3 cells; [1]) | IC50 (HeLa cells; [2]) | further results
1 | O=C1C(=Cc2ccc(O)c(O)c2)CNCC1=Cc1ccc(O)c(O)c1 [DHBC] | 788 nM | 667 nM | –
2 | CC(N)C(=O)N1CC(=Cc2ccc(Cl)c(Cl)c2)C(=O)C(=Cc2ccc(Cl)c(Cl)c2)C1 (centres unmarked) [RA7-Ala] | 92 nM | 68 nM | –
3 | NCC(=O)N1CC(=Cc2ccc(Cl)c(Cl)c2)C(=O)C(=Cc2ccc(Cl)c(Cl)c2)C1 [RA7-Gly] | 78 nM | 65 nM | –
4 | CCC(C)C(NC(=O)C(F)(F)F)C(=O)N1CC(=Cc2ccc(Cl)c(Cl)c2)C(=O)C(=Cc2ccc(Cl)c(Cl)c2)C1 (centres unmarked) [RA7-IleC] | 77 nM | 61 nM | –
5 | CCC(C)C(N)C(=O)N1CC(=Cc2ccc(Cl)c(Cl)c2)C(=O)C(=Cc2ccc(Cl)c(Cl)c2)C1 (centres unmarked) [RA7-Ile] | 101 nM | 72 nM | –
6 | CC(C)C(N)C(=O)N1CC(=Cc2ccc(Cl)c(Cl)c2)C(=O)C(=Cc2ccc(Cl)c(Cl)c2)C1 (centres unmarked) [RA7-Val] | 72 nM | 64 nM | –
7 | O=C1C(=Cc2ccc(Cl)c(Cl)c2)CNCC1=Cc1ccc(Cl)c(Cl)c1 [RA7] | 654 nM | 532 nM | –
8 | CC(=O)NC(Cc1ccccc1)C(=O)N1CC(=Cc2ccc([N+](=O)[O-])cc2)C(=O)C(=Cc2ccc([N+](=O)[O-])cc2)C1 (centres unmarked) [RA183Ac] | 71 nM | 56 nM | –
9 | C=CC(=O)NC(Cc1ccccc1)C(=O)N1CC(=Cc2ccc([N+](=O)[O-])cc2)C(=O)C(=Cc2ccc([N+](=O)[O-])cc2)C1 (centres unmarked) [RA183Acr] | 64 nM | 49 nM | –
10 | O=C1C(=Cc2ccc([N+](=O)[O-])cc2)CN(C(=O)C(Cc2ccccc2)NC(=O)C(F)(F)F)CC1=Cc1ccc([N+](=O)[O-])cc1 (centres unmarked) [RA183CF3] | 79 nM | 45 nM | –
11 | C=CC(=O)N[C@@H](Cc1ccccc1)C(=O)N1C/C(=C\c2ccc(Cl)c(Cl)c2)C(=O)/C(=C/c2ccc(Cl)c(Cl)c2)C1 [RA190 ACR] | 62 nM | 42 nM | –
12 | NCCCCCC(=O)NC(Cc1ccccc1)C(=O)N1CC(=Cc2ccc(Cl)c(Cl)c2)C(=O)C(=Cc2ccc(Cl)c(Cl)c2)C1 (centres unmarked) [RA190AHA] | 88 nM | 62 nM | –
13 | CC(=O)N[C@@H](Cc1ccccc1)C(=O)N1C/C(=C\c2ccc(Cl)c(Cl)c2)C(=O)/C(=C/c2ccc(Cl)c(Cl)c2)C1 [RA190Ac] | 68 nM | 46 nM | –
14 | O=C(CCCC[C@@H]1SCC2NC(=O)NC21)N[C@@H](Cc1ccccc1)C(=O)N1C/C(=C\c2ccc(Cl)c(Cl)c2)C(=O)/C(=C/c2ccc(Cl)c(Cl)c2)C1 (some centres unmarked) [RA190B, reference compound] | – | 346 nM | –
15 | O=C1C(=Cc2ccc(Cl)c(Cl)c2)CN(C(=O)C(Cc2ccccc2)NC(=O)c2ccccc2)CC1=Cc1ccc(Cl)c(Cl)c1 (centres unmarked) [RA190Bn] | 121 nM | 86 nM | –
16 | N#CCC(=O)NC(Cc1ccccc1)C(=O)N1CC(=Cc2ccc(Cl)c(Cl)c2)C(=O)C(=Cc2ccc(Cl)c(Cl)c2)C1 (centres unmarked) [RA190CA] | 84 nM | 51 nM | –
17 | O=C1C(=Cc2ccc(Cl)c(Cl)c2)CN(C(=O)C(Cc2ccccc2)NS(=O)(=O)c2ccc(-c3ccno3)s2)CC1=Cc1ccc(Cl)c(Cl)c1 (centres unmarked) [RA190IAS] | 342 nM | 211 nM | –
18 | CS(=O)(=O)NC(Cc1ccccc1)C(=O)N1CC(=Cc2ccc(Cl)c(Cl)c2)C(=O)C(=Cc2ccc(Cl)c(Cl)c2)C1 (centres unmarked) [RA190MS] | 133 nM | 86 nM | –
19 | CNC(=O)NC(Cc1ccccc1)C(=O)N1CC(=Cc2ccc(Cl)c(Cl)c2)C(=O)C(=Cc2ccc(Cl)c(Cl)c2)C1 (centres unmarked) [RA190MU] | 239 nM | 141 nM | –
20 | Cn1cncc1S(=O)(=O)NC(Cc1ccccc1)C(=O)N1CC(=Cc2ccc(Cl)c(Cl)c2)C(=O)C(=Cc2ccc(Cl)c(Cl)c2)C1 (centres unmarked) [RA190NMS] | 94 nM | 78 nM | –
21 | O=C1C(=Cc2ccc(Cl)c(Cl)c2)CN(C(=O)C(Cc2ccccc2)NC(=O)c2ccccn2)CC1=Cc1ccc(Cl)c(Cl)c1 (centres unmarked) [RA190P] | 64 nM | 55 nM | –
22 | O=C1C(=Cc2ccc(Cl)c(Cl)c2)CN(C(=O)C(Cc2ccccc2)NC(=O)c2cnccn2)CC1=Cc1ccc(Cl)c(Cl)c1 (centres unmarked) [RA190PyC] | 84 nM | 65 nM | –
23 | O=C(O)CCC(=O)NC(Cc1ccccc1)C(=O)N1CC(=Cc2ccc(Cl)c(Cl)c2)C(=O)C(=Cc2ccc(Cl)c(Cl)c2)C1 (centres unmarked) [RA190SA] | 253 nM | 121 nM | –
24 | COc1cc(C(=O)NC(Cc2ccccc2)C(=O)N2CC(=Cc3ccc(Cl)c(Cl)c3)C(=O)C(=Cc3ccc(Cl)c(Cl)c3)C2)cc(OC)c1OC (centres unmarked) [RA190TMB] | 112 nM | 94 nM | –
25 | CCCC(CCC)C(=O)NC(Cc1ccccc1)C(=O)N1CC(=Cc2ccc(Cl)c(Cl)c2)C(=O)C(=Cc2ccc(Cl)c(Cl)c2)C1 (centres unmarked) [RA190VA] | 87 nM | 74 nM | –
26 | C=Cc1ccc(C(=O)NC(Cc2ccccc2)C(=O)N2CC(=Cc3ccc(Cl)c(Cl)c3)C(=O)C(=Cc3ccc(Cl)c(Cl)c3)C2)cc1 (centres unmarked) [RA190VBA] | 178 nM | 94 nM | –
27 | CC(C)CC(N)C(=O)N1CC(=Cc2ccc(Cl)c(Cl)c2)C(=O)C(=Cc2ccc(Cl)c(Cl)c2)C1 (centres unmarked) [RA228] | 98 nM | 66 nM | –
28 | O=C1C(=Cc2ccc(Cl)c(Cl)c2)CN(C(=O)C(Cc2ccccc2)NC(=O)C(F)(F)F)CC1=Cc1ccc(Cl)c(Cl)c1 (centres unmarked) [RA230] | 69 nM | 47 nM | –

Row | SMILES | IC50 (SKOV3 cells; [1]) | IC50 (HeLa cells; [2]) | further results
29 | Cc1ccc(S(=O)(=O)NC(Cc2ccccc2)C(=O)N2CC(=Cc3ccc(Cl)c(Cl)c3)C(=O)C(=Cc3ccc(Cl)c(Cl)c3)C2)cc1 (centres unmarked) [RA231] | 167 nM | 111 nM | –
30 | O=C1C(=Cc2ccc(Cl)c(Cl)c2)CN(C(=O)C(Cc2ccccc2)NC(=O)N2CCOCC2)CC1=Cc1ccc(Cl)c(Cl)c1 (centres unmarked) [RA232] | 77 nM | 61 nM | –
31 | O=C1C(=Cc2ccc(Cl)c(Cl)c2)CN(C(=O)C(Cc2ccccc2)NC(=O)c2cccnc2)CC1=Cc1ccc(Cl)c(Cl)c1 (centres unmarked) [RA233] | 98 nM | 76 nM | –
32 | O=C(Nc1ccccc1)NC(Cc1ccccc1)C(=O)N1CC(=Cc2ccc(Cl)c(Cl)c2)C(=O)C(=Cc2ccc(Cl)c(Cl)c2)C1 (centres unmarked) [RA234] | 235 nM | 143 nM | –
33 | NC(Cc1ccc(O)cc1)C(=O)N1CC(=Cc2ccc(Cl)c(Cl)c2)C(=O)C(=Cc2ccc(Cl)c(Cl)c2)C1 (centres unmarked) [RA295] | 116 nM | 89 nM | –
34 | CC(=O)NCCCCC(N)C(=O)NC(Cc1ccccc1)C(=O)N1CC(=Cc2ccc(Cl)c(Cl)c2)C(=O)C(=Cc2ccc(Cl)c(Cl)c2)C1 (centres unmarked) [RA310Ac] | 284 nM | 195 nM | –
35 | Cl.NCCCCC(N)C(=O)NC(Cc1ccccc1)C(=O)N1CC(=Cc2ccc(Cl)c(Cl)c2)C(=O)C(=Cc2ccc(Cl)c(Cl)c2)C1 (centres unmarked) [RA310] | 446 nM | 543 nM | fold decreased potency compared to RA190 (HeLa cells; cytotoxicity, Table 1 cell lines (HeLa, SKOV3)): 3 fold
36 | O=C1C(=Cc2ccc(Cl)c(Cl)c2)C2CCC(N2)C1=Cc1ccc(Cl)c(Cl)c1 [RA329] | – | – | IC50 (SKOV3 cells; [3]): 471 nM; IC50 (HeLa cells; [4]): 407 nM
37 | O=C1C(=Cc2ccccc2)C2CCC(N2)C1=Cc1ccccc1 [RA330] | – | – | IC50 (SKOV3 cells; [3]): 278 nM; IC50 (HeLa cells; [4]): 239 nM
38 | O=C1C(=Cc2ccc([N+](=O)[O-])cc2)C2CCC(N2)C1=Cc1ccc([N+](=O)[O-])cc1 [RA331] | – | – | IC50 (SKOV3 cells; [3]): 301 nM; IC50 (HeLa cells; [4]): 236 nM
39 | O=C1C(=Cc2ccc(-c3cccnc3)cc2)C2CCC(N2)C1=Cc1ccc(-c2cccnc2)cc1 [RA332] | – | – | IC50 (SKOV3 cells; [3]): 376 nM; IC50 (HeLa cells; [4]): 243 nM
40 | C=CC(=O)N1C2CCC1C(=Cc1ccc([N+](=O)[O-])cc1)C(=O)C2=Cc1ccc([N+](=O)[O-])cc1 [RA333] | – | – | IC50 (SKOV3 cells; [3]): 167 nM; IC50 (HeLa cells; [4]): 112 nM
41 | C=CC(=O)N1C2CCC1C(=Cc1ccc(Cl)c(Cl)c1)C(=O)C2=Cc1ccc(Cl)c(Cl)c1 [RA334] | – | – | IC50 (SKOV3 cells; [3]): 186 nM; IC50 (HeLa cells; [4]): 101 nM
42 | CC(=O)N1C2CCC1C(=Cc1ccc(Cl)c(Cl)c1)C(=O)C2=Cc1ccc(Cl)c(Cl)c1 [RA335] | – | – | IC50 (SKOV3 cells; [3]): 251 nM; IC50 (HeLa cells; [4]): 161 nM
43 | C=CC(=O)N1C2CCC1C(=Cc1ccccc1)C(=O)C2=Cc1ccccc1 [RA336] | – | – | IC50 (SKOV3 cells; [3]): 185 nM; IC50 (HeLa cells; [4]): 146 nM
44 | CC(=O)N1C2CCC1C(=Cc1ccccc1)C(=O)C2=Cc1ccccc1 [RA337] | – | – | IC50 (SKOV3 cells; [3]): 231 nM; IC50 (HeLa cells; [4]): 186 nM
45 | C=CC(=O)NC(Cc1ccccc1)C(=O)N1C2CCC1C(=Cc1ccc(Cl)c(Cl)c1)C(=O)C2=Cc1ccc(Cl)c(Cl)c1 (centres unmarked) [RA339] | – | – | IC50 (SKOV3 cells; [3]): 54 nM; IC50 (HeLa cells; [4]): 46 nM
46 | C=CC(=O)N1C2CCC1C(=Cc1ccc(-c3cccnc3)cc1)C(=O)C2=Cc1ccc(-c2cccnc2)cc1 [RA340] | – | – | IC50 (SKOV3 cells; [3]): 259 nM; IC50 (HeLa cells; [4]): 184 nM
47 | O=C(CCl)N[C@@H](Cc1ccccc1)C(=O)N1C/C(=C\c2ccc(Cl)c(Cl)c2)C(=O)/C(=C/c2ccc(Cl)c(Cl)c2)C1 [RA371] | – | – | IC50 (SKOV3 cells; Homo sapiens, SK-OV-3, Table 1, XTT assay, read-out: IC50 SKOV3): 47 nM; IC50 (HeLa cells; Homo sapiens, HeLa, Table 1, XTT assay, read-out: IC50 HeLa): 44 nM
48 | NC(Cc1ccccc1)C(=O)N1CC(=Cc2ccc(Cl)cc2)C(=O)C(=Cc2ccc(Cl)cc2)C1 (centres unmarked) [RA-4Cl] | 83 nM | 71 nM | –
49 | O=C(CCl)NC(Cc1ccccc1)C(=O)N1CC(=Cc2csc(Br)c2)C(=O)C(=Cc2csc(Br)c2)C1 (centres unmarked) [RA-BTPCA] | 189 nM | 132 nM | –
50 | NC(Cc1ccccc1)C(=O)N1CC(=Cc2ccc(Cl)c(C(F)(F)F)c2)C(=O)C(=Cc2ccc(Cl)c(C(F)(F)F)c2)C1 (centres unmarked) [RA-CTFP] | 81 nM | 56 nM | –
51 | O=C1C(=Cc2ccc(Cl)c(C(F)(F)F)c2)CNCC1=Cc1ccc(Cl)c(C(F)(F)F)c1 [RA-CTF] | 457 nM | 324 nM | –
52 | O=C1C(=CC=Cc2ccccc2)CNCC1=CC=Cc1ccccc1 [RA-Cinn] | > 5000 nM | > 5000 nM | –
53 | COc1cc(C=C2CN(C(=O)C(N)Cc3ccccc3)CC(=Cc3cc(OC)c(OC)c(OC)c3)C2=O)cc(OC)c1OC (centres unmarked) [RA-TMP] | 125 nM | 78 nM | –
54 | NC(Cc1ccccc1)C(=O)N1CC(=Cc2ccc([N+](=O)[O-])cc2)C(=O)C(=Cc2ccc(Cl)c(Cl)c2)C1 (centres unmarked) [RA-asyP] | 62 nM | 48 nM | –
55 | O=C1C(=Cc2ccc([N+](=O)[O-])cc2)CNCC1=Cc1ccc(Cl)c(Cl)c1 [RA-asy] | 398 nM | 312 nM | –
